Test results: patent publication US20210315831A1, “PREPARATION OF NANOSUSPENSION COMPRISING NANOCRYSTALS OF ACTIVE PHARMACEUTICAL INGREDIENTS WITH LITTLE OR NO STABILIZING AGENTS” (CENTRE NATIONAL DE LA RECHERCHE SCIENTIFIQUE, priority 2018, published 2021)
Where two headings read alike, the source gives them in different places.

Assays:
CT26 colon cancer cells = experiment: In vitro cytotoxicity, MTT test, CT26 cells; details: Mus musculus
white blood cells (WBC) = experiment: Hematological toxicity, white blood cell count in mice; format: in vivo, BALB/c female mice
Protocol: The drug schedule protocol was equivalent to the anticancer efficacy study. Blood samples were taken in the mice tail vein at 1, 12, 15, 17 and 22 days and transferred to Eppendorf tube containing 2 μL of EDTA for white blood cells (WBC) numbering using a MS9-5 (MS Pharmaceuticals, France).

[1] = test system: LLC1 Lewis lung cancer cells; experiment: cells; details: Mus musculus
in vivo = details: female, BALB/c, mouse, plasma, iv, 10 mg/kg
[2] = test system: Murine carcinoma tumors CT26; experiment: Anticancer efficacy on subcutaneous CT26 tumors in mice; details: 10 mg/kg ETO d8, d9 and d11, d12
[3] = Plasma pharmacokinetic in mice after intravenous injection; details: i.v. 10 mg/kg ETO

IC50 ([1]; LLC1, 48 h, read-out: LLC1-IC 50 (48 h) (μM)): 1.66 ± 0.13 µM
IC50 ([1]; LLC1, 72 h, read-out: LLC1-IC 50 (72 h) (μM)): 1.05 ± 0.02 µM
AUC(0-t) (in vivo): 6.3 µg·h/mL
MRT (in vivo): 1.89 min
half-life (in vivo): 4.89 min
mice weight loss throughout the investigation [2]: a decrease is observed
Maximum amount in total mice plasma (μg/mL) ± SD (n = 6) [3]: 37.62 ± 0.85 µg/mL
SMILES: COc1cc([C@@H]2c3cc4c(cc3[C@@H](O[C@@H]3O[C@@H]5CO[C@@H](C)O[C@H]5[C@H](O)[C@H]3O)[C@H]3COC(=O)[C@H]23)OCO4)cc(OC)c1O [Free Etoposide, etoposide]
IC50 (CT26 colon cancer cells; CT26, 48 h, read-out: CT26-IC50 (48 h) (μM)): 11.3 ± 1.4 µM
IC50 (CT26 colon cancer cells; CT26, 48 h, read-out: IC 50 (48 h) (μg/mL)): 8.99 µg/mL
IC50 (CT26 colon cancer cells; CT26, 72 h, read-out: CT26-IC50 (72 h) (μM)): 5.6 ± 0.1 µM
IC50 (CT26 colon cancer cells; CT26, 72 h, read-out: IC 50 (72 h) (μg/mL)): 5.17 µg/mL
White blood cell count (10^9 cells/L), Days 1 (white blood cells (WBC); day 1, taken as control before treatment): 8.9 ± 2.3 10^9 cells/L
White blood cell count (10^9 cells/L), Days 12 (white blood cells (WBC); day 12, last day of treatment, i.v. 10 mg/kg): 6.5 ± 4.4 10^9 cells/L
White blood cell count (10^9 cells/L), Days 15 (white blood cells (WBC); day 15, i.v. 10 mg/kg): 11.6 ± 0.9 10^9 cells/L
White blood cell count (10^9 cells/L), Days 17 (white blood cells (WBC); day 17, i.v. 10 mg/kg): 10.4 ± 1.3 10^9 cells/L
White blood cell count (10^9 cells/L), Days 22 (white blood cells (WBC); day 22, i.v. 10 mg/kg): 11.3 ± 3.4 10^9 cells/L
Time for median tumor to reach 50 mm^3 [2]: 9.5
Mean body weight change, d17 ([2]; second value of the cell, d17): +3.85 d17
Mean body weight change (day of nadir) ([2]; value at nadir): −3.40
Median Tumor Volume (mm^3 on day 12) ([2]; day 12): 69 mm^3
